Experimental data taken from patent US20150038435A1, “N-TERMINALLY MODIFIED OLIGOPEPTIDES AND USES THEREOF” (Novo Nordisk A/S, priority 2012, published 2015).
Each block holds one substance with its values, some of them ahead of it. *: point of attachment. Lauroyl = CCCCCCCCCCCC(=O)*

Columns and labels:
Chymotrypsin = assay: Inhibition of enzymatic degradation of a model GLP-1 (FRET substrate) by chymotrypsin; assay type: biochemical
From the text: (§1) The use of Förster resonance energy transfer (FRET), also known as fluorescence resonance energy transfer, substrates to monitor activity of proteolytic enzymes is known in the field (for example Anjuere, F. et al. (1993). Biochem J 291 (Pt 3), 869-73).
(§2) Model GLP-1 analogue was designed as FRET substrate by incorporation of 7-Methoxycoumarin-4-acetic acid (MCA) group as the donor chromophore and dinitrophenol group (DNP) as the acceptor chromophore.
(§3) An assay following the increase in fluorescence as a function of time was established in 96 well format using Varioskan Flash Multimode Meter (Thermo Scientific). Each well contained 70 μl of Dulbecco's phosphate buffer saline (Invitrogen catalogue #14190-094), 10 μl of 100 μM GLP-1 FRET substrate, 10 μl of N-terminally acylated peptide or oligopeptide of the invention in varying concentration and 10 μl of a stock solution of an enzyme (chymotrypsin, trypsin, elastase, etc.). The incubations were performed at 37° C. Fluorescence (320 nm excitation wavelength and 405 nm emission wavelength) was measured immediately after addition of the enzyme to the 96 well plate and also every minute for at least the next 30 minutes. The concentration of the enzyme was optimized to allow determination of slopes for the time course of initial fluorescence increase with and without the N-terminally acylated peptides or oligopeptides of the invention. The slopes were determined by linear regression of the linear part of the fluorescence trace (for example, the first 10 min of the reaction). Each assay was performed in duplicate and average of the two traces was included in the calculations. The relative effect of N-terminally acylated peptide or oligopeptides of the invention on enzymatic degradation of GLP-1 FRET substrate was obtained by comparison of the slopes achieved by the same concentration of the N-terminally acylated peptide or oligopeptides. […] This was done by plotting the slopes achieved with different concentrations of the N-terminally acylated peptide or oligopeptides of the invention as a function of their concentrations and fitting the experimental results using, for example, sigmoidal logistic regression (2 parameters, Sigma Plot v 11). Inhibition constants for the interaction between the N-terminally acylated peptide or oligopeptides of the invention and proteolytic enzymes were also obtained by performing the assay described above with varying concentrations of the inhibitor and substrate and analyzing the results, for example, by double reciprocal transformation as known to the person skilled in the art and described for example in Hubalek, F. et al., J. Med. Chem. 47, 1760-1766 (2004).
(§4) The EC50 was determined for the following compounds. EC50±standard error is reported if the results of at least 3 independent measurements were available.

Trypsin = assay: Inhibition of enzymatic degradation of a model GLP-1 (FRET substrate) by trypsin; assay type: biochemical
From the text: as §1, §2, §3, §4

[1] = Hydrophobicity: retention time during reverse phase HPLC; assay type: physicochemical; conditions: Acquity CSH C18; pH 7.2 buffer/CH3CN gradient; 40° C.
From the text: The retention time (RT) during reverse phase HPLC was taken as a measure of hydrophobicity of an N-terminally modified peptide or oligopeptide of the invention, where the connection is: The longer the RT, the more hydrophobic N-terminally modified peptide or oligopeptide. The following running conditions were applied during HPLC analysis:
Buffer B: 70% (v/v) aq. CH3CN

[2] = compound 0.1 mM, buffer containing 8% DMSO

Substance: N-dodecanoyl-Ala-Ala-Glu-Tyr-OH (Lauroyl-AAEY-OH; SMILES CCCCCCCCCCCC(=O)N[C@@H](C)C(=O)N[C@@H](C)C(=O)N[C@@H](CCC(=O)O)C(=O)N[C@@H](Cc1ccc(O)cc1)C(=O)O) [Example 62]
Slope of the initial increase in fluorescence obtained during incubation with 0.001 mg/ml Chymotrypsin (Chymotrypsin; [2]): 1.35
Slope of the initial increase in fluorescence obtained during incubation with 0.001 mg/ml Trypsin (Trypsin; [2]): 1.66
RT (retention time during reverse phase HPLC as a measure of hydrophobicity) [1]: 4.36 min

Substance: N-dodecanoyl-Ala-Ala-Gly-Tyr-OH (Lauroyl-AAGY-OH; SMILES CCCCCCCCCCCC(=O)N[C@@H](C)C(=O)N[C@@H](C)C(=O)NCC(=O)N[C@@H](Cc1ccc(O)cc1)C(=O)O) [Example 63]
Slope of the initial increase in fluorescence obtained during incubation with 0.001 mg/ml Chymotrypsin (Chymotrypsin; [2]): 1.89
Slope of the initial increase in fluorescence obtained during incubation with 0.001 mg/ml Trypsin (Trypsin; [2]): 1.90
RT (retention time during reverse phase HPLC as a measure of hydrophobicity) [1]: 5.46 min

Substance: N-dodecanoyl-Ala-Ala-His-Tyr-OH (Lauroyl-AAHY-OH; SMILES CCCCCCCCCCCC(=O)N[C@@H](C)C(=O)N[C@@H](C)C(=O)N[C@@H](Cc1c[nH]cn1)C(=O)N[C@@H](Cc1ccc(O)cc1)C(=O)O) [Example 64]
Slope of the initial increase in fluorescence obtained during incubation with 0.001 mg/ml Chymotrypsin (Chymotrypsin; [2]): 1.23
Slope of the initial increase in fluorescence obtained during incubation with 0.001 mg/ml Trypsin (Trypsin; [2]): 2.23
RT (retention time during reverse phase HPLC as a measure of hydrophobicity) [1]: 5.33 min

Substance: N-dodecanoyl-Ala-Ala-Ile-Tyr-OH (Lauroyl-AAIY-OH; SMILES CCCCCCCCCCCC(=O)N[C@@H](C)C(=O)N[C@@H](C)C(=O)N[C@H](C(=O)N[C@@H](Cc1ccc(O)cc1)C(=O)O)[C@@H](C)CC) [Example 65]
Slope of the initial increase in fluorescence obtained during incubation with 0.001 mg/ml Chymotrypsin (Chymotrypsin; [2]): 2.04
Slope of the initial increase in fluorescence obtained during incubation with 0.001 mg/ml Trypsin (Trypsin; [2]): 1.60
RT (retention time during reverse phase HPLC as a measure of hydrophobicity) [1]: 3.12 min

Substance: N-dodecanoyl-Ala-Ala-Leu-Tyr-OH (Lauroyl-AALY-OH; SMILES CCCCCCCCCCCC(=O)N[C@@H](C)C(=O)N[C@@H](C)C(=O)N[C@@H](CC(C)C)C(=O)N[C@@H](Cc1ccc(O)cc1)C(=O)O) [Example 66]
Slope of the initial increase in fluorescence obtained during incubation with 0.001 mg/ml Chymotrypsin (Chymotrypsin; [2]): 0.18
Slope of the initial increase in fluorescence obtained during incubation with 0.001 mg/ml Trypsin (Trypsin; [2]): 1.98
RT (retention time during reverse phase HPLC as a measure of hydrophobicity) [1]: 7.18 min

Substance: N-dodecanoyl-Ala-Ala-Lys-Tyr-OH (Lauroyl-AAKY-OH; SMILES CCCCCCCCCCCC(=O)N[C@@H](C)C(=O)N[C@@H](C)C(=O)N[C@@H](CCCCN)C(=O)N[C@@H](Cc1ccc(O)cc1)C(=O)O) [Example 67]
Slope of the initial increase in fluorescence obtained during incubation with 0.001 mg/ml Chymotrypsin (Chymotrypsin; [2]): 0.94
Slope of the initial increase in fluorescence obtained during incubation with 0.001 mg/ml Trypsin (Trypsin; [2]): 1.89
RT (retention time during reverse phase HPLC as a measure of hydrophobicity) [1]: 4.7 min

Substance: N-dodecanoyl-Ala-Ala-Met-Tyr-OH (Lauroyl-AAMY-OH; SMILES CCCCCCCCCCCC(=O)N[C@@H](C)C(=O)N[C@@H](C)C(=O)N[C@@H](CCSC)C(=O)N[C@@H](Cc1ccc(O)cc1)C(=O)O) [Example 68]
Slope of the initial increase in fluorescence obtained during incubation with 0.001 mg/ml Chymotrypsin (Chymotrypsin; [2]): 0.60
Slope of the initial increase in fluorescence obtained during incubation with 0.001 mg/ml Trypsin (Trypsin; [2]): 1.73
RT (retention time during reverse phase HPLC as a measure of hydrophobicity) [1]: 6.68 min

RT (retention time during reverse phase HPLC as a measure of hydrophobicity) [1]: 6.89 min
Substance: N-dodecanoyl-Ala-Ala-Pro-DPhe-OH [Example 4]
Slope of the initial increase in fluorescence obtained during incubation with 0.001 mg/ml Chymotrypsin (Chymotrypsin; compound 1 mM): 0.08
Slope of the initial increase in fluorescence obtained during incubation with 0.001 mg/ml Trypsin (Trypsin; compound 1 mM): 0.83

Substance: N-dodecanoyl-Ala-Ala-Pro-Leu-OH (Lauroyl-AAPL-OH; SMILES CCCCCCCCCCCC(=O)N[C@@H](C)C(=O)N[C@@H](C)C(=O)N1CCC[C@H]1C(=O)N[C@@H](CC(C)C)C(=O)O) [Example 11]
Slope of the initial increase in fluorescence obtained during incubation with 0.001 mg/ml Chymotrypsin (Chymotrypsin; compound 1 mM): 0.77
Slope of the initial increase in fluorescence obtained during incubation with 0.001 mg/ml Trypsin (Trypsin; compound 1 mM): 3.06
RT (retention time during reverse phase HPLC as a measure of hydrophobicity) [1]: 1.22 min

EC50 (Chymotrypsin; read-out: EC50 Chymotrypsin (0.001 mg/ml), 0.001 mg/ml chymotrypsin, 37° C., ± standard error if at least 3 measurements): 29 ± 2 µM
EC50 (Trypsin; read-out: EC50 Trypsin (0.001 mg/ml), 0.001 mg/ml trypsin, 37° C.): 413 µM
Substance: N-dodecanoyl-Ala-Ala-Pro-Trp-OH (Lauroyl-AAPW-OH; SMILES CCCCCCCCCCCC(=O)N[C@@H](C)C(=O)N[C@@H](C)C(=O)N1CCC[C@H]1C(=O)N[C@@H](Cc1c[nH]c2ccccc12)C(=O)O) [Example 26]
RT (retention time during reverse phase HPLC as a measure of hydrophobicity) [1]: 7.03 min

Substance: N-dodecanoyl-Ala-Ala-Pro-Tyr-OH [Example 69] (Lauroyl-AAPY-OH; SMILES CCCCCCCCCCCC(=O)N[C@@H](C)C(=O)N[C@@H](C)C(=O)N1CCC[C@H]1C(=O)N[C@@H](Cc1ccc(O)cc1)C(=O)O)
Slope of the initial increase in fluorescence obtained during incubation with 0.001 mg/ml Chymotrypsin (Chymotrypsin; [2]): 0.43
Slope of the initial increase in fluorescence obtained during incubation with 0.001 mg/ml Trypsin (Trypsin; [2]): 1.83
RT (retention time during reverse phase HPLC as a measure of hydrophobicity) [1]: 5.79 min

Substance: N-dodecanoyl-Ala-Ala-Ser-Tyr-OH (Lauroyl-AASY-OH; SMILES CCCCCCCCCCCC(=O)N[C@@H](C)C(=O)N[C@@H](C)C(=O)N[C@@H](CO)C(=O)N[C@@H](Cc1ccc(O)cc1)C(=O)O) [Example 70]
Slope of the initial increase in fluorescence obtained during incubation with 0.001 mg/ml Chymotrypsin (Chymotrypsin; [2]): 1.50
Slope of the initial increase in fluorescence obtained during incubation with 0.001 mg/ml Trypsin (Trypsin; [2]): 1.45
RT (retention time during reverse phase HPLC as a measure of hydrophobicity) [1]: 5.43 min

Substance: N-dodecanoyl-Ala-Ala-Thr-Tyr-OH (Lauroyl-AATY-OH; SMILES CCCCCCCCCCCC(=O)N[C@@H](C)C(=O)N[C@@H](C)C(=O)N[C@H](C(=O)N[C@@H](Cc1ccc(O)cc1)C(=O)O)[C@@H](C)O) [Example 71]
Slope of the initial increase in fluorescence obtained during incubation with 0.001 mg/ml Chymotrypsin (Chymotrypsin; [2]): 0.91
Slope of the initial increase in fluorescence obtained during incubation with 0.001 mg/ml Trypsin (Trypsin; [2]): 1.76
RT (retention time during reverse phase HPLC as a measure of hydrophobicity) [1]: 5.61 min

Substance: N-dodecanoyl-Ala-Ala-Val-Tyr-OH (Lauroyl-AAVY-OH; SMILES CCCCCCCCCCCC(=O)N[C@@H](C)C(=O)N[C@@H](C)C(=O)N[C@H](C(=O)N[C@@H](Cc1ccc(O)cc1)C(=O)O)C(C)C) [Example 72]
Slope of the initial increase in fluorescence obtained during incubation with 0.001 mg/ml Chymotrypsin (Chymotrypsin; [2]): 1.18
Slope of the initial increase in fluorescence obtained during incubation with 0.001 mg/ml Trypsin (Trypsin; [2]): 1.52
RT (retention time during reverse phase HPLC as a measure of hydrophobicity) [1]: 6.44 min

Substance: N-dodecanoyl-Ala-Arg-Pro-Tyr-OH (Lauroyl-ARPY-OH; SMILES CCCCCCCCCCCC(=O)N[C@@H](C)C(=O)N[C@@H](CCCNC(=N)N)C(=O)N1CCC[C@H]1C(=O)N[C@@H](Cc1ccc(O)cc1)C(=O)O) [Example 73]
Slope of the initial increase in fluorescence obtained during incubation with 0.001 mg/ml Chymotrypsin (Chymotrypsin; [2]): 0.08
Slope of the initial increase in fluorescence obtained during incubation with 0.001 mg/ml Trypsin (Trypsin; [2]): 1.67
RT (retention time during reverse phase HPLC as a measure of hydrophobicity) [1]: 5.34 min

Substance: N-dodecanoyl-Ala-Asn-Pro-Tyr-OH (Lauroyl-ANPY-OH; SMILES CCCCCCCCCCCC(=O)N[C@@H](C)C(=O)N[C@@H](CC(N)=O)C(=O)N1CCC[C@H]1C(=O)N[C@@H](Cc1ccc(O)cc1)C(=O)O) [Example 74]
Slope of the initial increase in fluorescence obtained during incubation with 0.001 mg/ml Chymotrypsin (Chymotrypsin; [2]): 1.66
Slope of the initial increase in fluorescence obtained during incubation with 0.001 mg/ml Trypsin (Trypsin; [2]): 2.27
RT (retention time during reverse phase HPLC as a measure of hydrophobicity) [1]: 5.27 min

Substance: N-dodecanoyl-Ala-Asp-Pro-Tyr-OH (Lauroyl-ADPY-OH; SMILES CCCCCCCCCCCC(=O)N[C@@H](C)C(=O)N[C@@H](CC(=O)O)C(=O)N1CCC[C@H]1C(=O)N[C@@H](Cc1ccc(O)cc1)C(=O)O) [Example 75]
Slope of the initial increase in fluorescence obtained during incubation with 0.001 mg/ml Chymotrypsin (Chymotrypsin; [2]): 1.77
Slope of the initial increase in fluorescence obtained during incubation with 0.001 mg/ml Trypsin (Trypsin; [2]): 1.81
RT (retention time during reverse phase HPLC as a measure of hydrophobicity) [1]: 4.2 min

Substance: N-dodecanoyl-Ala-Gln-Pro-Tyr-OH (Lauroyl-AQPY-OH; SMILES CCCCCCCCCCCC(=O)N[C@@H](C)C(=O)N[C@@H](CCC(N)=O)C(=O)N1CCC[C@H]1C(=O)N[C@@H](Cc1ccc(O)cc1)C(=O)O) [Example 76]
Slope of the initial increase in fluorescence obtained during incubation with 0.001 mg/ml Chymotrypsin (Chymotrypsin; [2]): 0.85
Slope of the initial increase in fluorescence obtained during incubation with 0.001 mg/ml Trypsin (Trypsin; [2]): 2.22
RT (retention time during reverse phase HPLC as a measure of hydrophobicity) [1]: 5.26 min
